Measurements published in patent US20260242416A1, “ANTIMICROBIAL PEPTIDES” (priority 2023, published 2026).
Where a SMILES comes first, the peptide text is derived from it.

Tests used:
[1] = test system: Salmonella enterica serovar Enteritidis (human clinical isolate); format: cell-based; settings: serovar Enteritidis (human clinical isolate)
Description: (§1) Bacteria were grown overnight at 37° C. in Mueller-Hinton Broth (MHB; Sigma-Aldrich, St. Louis. MO, USA) in a shaking incubator and aliquoted into cryovials with a 50% glycerol solution in a 1:1 ratio. No additives were added to the MHB during the growth of bacterial isolates. Glycerol stocks were stored at −80° C.
(§2) The antimicrobial activity of the putative AMPs was determined by a broth microdilution assay as described by the Clinical and Laboratory Standards Institute, with the published adaptations for testing of cationic peptides. Escherichia coli 25922 and Staphylococcus aureus 29213 isolates were purchased from the American Type Culture Collection (ATCC; Manassas, VA, USA). A human clinical isolate of Salmonella enterica serovar Enteritidis was provided by the BC Centre for Disease Control. Bacteria from stocks stored at −80° C. were streaked onto nonselective Columbia blood agar with 5% sheep blood (Oxoid) and incubated overnight at 37° C. Next, 2-4 colonies were streaked onto a new agar plate to ensure uniform health of colonies used in the broth microdilution assay. Isolated colonies were suspended in MHB and the optical density was measured with a spectrophotometer to create an initial inoculum concentration of approximately 1×10^8 cfu/mL. The inoculum was diluted 1:250 to a final concentration of 2-8×10^5 cfu/mL, which was confirmed by performing a Total Viability Count (TVC). The TVC consisted of plating a 1:1000 dilution of the final inoculum on nonselective media and was also used to confirm the health and purity of the inoculum in each trial.
(§3) Lyophilized 80 μg peptide aliquots synthesized by GenScript (Piscataway, NJ, USA) were resuspended to 1.28 mg/mL with UltraPure water (Thermo Fisher Scientific, Waltham, MA, USA) and serially diluted in polypropylene 96-well microtiter plates (Greiner Bio-One #650261, Kremsmunster, Austria) from 128 down to 0.5 μg/mL. Two columns per plate were reserved for growth and sterility controls. Inoculum was added to the wells containing the peptide and the growth control. Plates were incubated for 20-24 h at 37° C. The minimum inhibitory concentration (MIC) was determined as the lowest peptide concentration where there was no visible bacterial growth.

[2] = test system: E. coli ATCC 25922; format: cell-based, Escherichia coli; settings: ATCC 25922
Description: as §1, §2, §3

[3] = test system: S. aureus ATCC 29213; format: cell-based, Staphylococcus aureus; settings: ATCC 29213
Description: as §1, §2, §3

Row | MIC (ug/mL) S. Enteritidis [1] | MIC (ug/mL) E. coli [2] | MIC (ug/mL) S. aureus [3] | SMILES
1 | >128/>128/>128 ug/mL | >128/>128/>128 ug/mL | >128/>128/>128 ug/mL | CC[C@H](C)[C@H](NC(=O)[C@H](CCCCN)NC(=O)[C@H](CCCNC(=N)N)NC(=O)[C@H](C)NC(=O)[C@@H](N)CCCNC(=N)N)C(=O)N[C@@H](CCCNC(=N)N)C(=O)N[C@@H](CCCNC(=N)N)C(=O)N[C@@H](CCCNC(=N)N)C(=O)N[C@@H](CCCNC(=N)N)C(=O)NCC(=O)N[C@@H](CO)C(=O)N[C@@H](CC(C)C)C(=O)N[C@@H](CCCNC(=N)N)C(=O)N[C@@H](Cc1c[nH]cn1)C(=O)N[C@@H](CS)C(=O)N[C@H](C(=O)N[C@H](C(=O)N[C@H](C(=O)N1CCC[C@H]1C(=O)N[C@@H](CO)C(=O)N[C@H](C(=O)N1CCC[C@H]1C(=O)N[C@@H](CO)C(=O)NCC(=O)N[C@@H](CCCNC(=N)N)C(=O)O)[C@@H](C)O)[C@@H](C)CC)[C@@H](C)O)C(C)C [ApMe6] (H-RARKIRRRRGSLRHCVTIPSTPSGR-OH; N-terminus and C-terminus assumed)
2 | >128/>128/>128 ug/mL | >128/>128/>128 ug/mL | >128/>128/>128 ug/mL | CC(C)[C@H](NC(=O)[C@H](CCCCN)NC(=O)CNC(=O)[C@H](C)NC(=O)CNC(=O)[C@H](C)NC(=O)[C@H](C)N)C(=O)N[C@H](C(=O)N[C@@H](CCCCN)C(=O)N[C@@H](CO)C(=O)N[C@@H](C)C(=O)N[C@@H](CCC(N)=O)C(=O)N[C@@H](CCCCN)C(=O)N[C@@H](C)C(=O)N[C@@H](CCC(N)=O)C(=O)N[C@@H](CCCCN)C(=O)N[C@@H](C)C(=O)N[C@@H](CCCCN)C(=O)O)[C@@H](C)O [BoAr1, AAGAGKVTKSAQKAQKAK] (H-AAGAGKVTKSAQKAQKAK-OH; N-terminus and C-terminus assumed)
3 | >128/>128/>128 ug/mL | >128/>128/>128 ug/mL | >128/>128/>128 ug/mL | CC[C@H](C)[C@H](NC(=O)[C@H](CCCCN)NC(=O)[C@H](CC(C)C)NC(=O)[C@H](Cc1c[nH]c2ccccc12)NC(=O)[C@@H]1CCCN1C(=O)[C@H](Cc1c[nH]cn1)NC(=O)[C@H](CCCCN)NC(=O)[C@H](CC(C)C)NC(=O)[C@H](CS)NC(=O)[C@H](CCC(=O)O)NC(=O)[C@H](C)NC(=O)[C@H](C)NC(=O)[C@@H](NC(=O)[C@H](C)N)[C@@H](C)O)C(=O)N[C@@H](CCCCN)C(=O)N[C@@H](CCCCN)C(=O)O [BoAr2, ATAAECLKHPWLKIKK] (H-ATAAECLKHPWLKIKK-OH; N-terminus and C-terminus assumed)
4 | >128/>128/>128 ug/mL | >128/>128/>128 ug/mL | >128/>128/>128 ug/mL | CC[C@H](C)[C@H](N)C(=O)N[C@H](C(=O)N[C@@H](CCCNC(=N)N)C(=O)N[C@@H](C)C(=O)N[C@H](C(=O)N[C@@H](C)C(=O)N[C@@H](C)C(=O)N[C@@H](CCC(=O)O)C(=O)N[C@@H](CS)C(=O)N[C@@H](CC(C)C)C(=O)N[C@@H](CCCCN)C(=O)N[C@@H](Cc1c[nH]cn1)C(=O)N1CCC[C@H]1C(=O)N[C@@H](Cc1c[nH]c2ccccc12)C(=O)N[C@@H](CC(C)C)C(=O)N[C@@H](CCCCN)C(=O)N[C@H](C(=O)N[C@@H](CCCCN)C(=O)N[C@@H](CCCCN)C(=O)O)[C@@H](C)CC)[C@@H](C)O)[C@@H](C)CC [BoAr3, IIRATAAECLKHPWLKIKK] (H-IIRATAAECLKHPWLKIKK-OH; N-terminus and C-terminus assumed)
5 | >128/>128/>128 ug/mL | >128/>128/>128 ug/mL | >128/>128/>128 ug/mL | CC(C)C[C@H](NC(=O)[C@H](CO)NC(=O)[C@H](C)NC(=O)[C@@H](NC(=O)[C@@H](N)CO)C(C)C)C(=O)N[C@@H](C)C(=O)N[C@@H](CCCCN)C(=O)N[C@@H](CC(N)=O)C(=O)N[C@@H](CO)C(=O)N[C@@H](C)C(=O)N[C@@H](Cc1c[nH]c2ccccc12)C(=O)N1CCC[C@H]1C(=O)N[C@H](C(=O)N[C@@H](CO)C(=O)N[C@@H](CC(C)C)C(=O)N[C@@H](CCCCN)C(=O)N[C@@H](CCCNC(=N)N)C(=O)O)C(C)C [BoAr4, SVASLAKNSAWPVSLKR] (H-SVASLAKNSAWPVSLKR-OH; N-terminus and C-terminus assumed)
6 | >128/>128/>128 ug/mL | >128/>128/>128 ug/mL | >128/>128/>128 ug/mL | CC[C@H](C)[C@H](NC(=O)[C@H](CO)NC(=O)[C@@H](NC(=O)[C@@H](NC(=O)[C@@H](N)C(C)C)[C@@H](C)O)[C@@H](C)CC)C(=O)N[C@@H](C)C(=O)N[C@@H](CCCNC(=N)N)C(=O)N[C@@H](CCCNC(=N)N)C(=O)N[C@H](C(=O)N[C@@H](CO)C(=O)N[C@@H](CO)C(=O)N[C@@H](Cc1c[nH]cn1)C(=O)N[C@@H](CCCCN)C(=O)N[C@@H](CCCNC(=N)N)C(=O)NCC(=O)O)C(C)C [BoAr5, VTISIARRVSSHKRG] (H-VTISIARRVSSHKRG-OH; N-terminus and C-terminus assumed)

Second part, the molecule before the results:

Row | SMILES | MIC (ug/mL) S. Enteritidis [1] | MIC (ug/mL) E. coli [2] | MIC (ug/mL) S. aureus [3]
7 | CC(C)[C@H](N)C(=O)N[C@@H](CCCCN)C(=O)N[C@@H](CS)C(=O)N[C@@H](CCCNC(=N)N)C(=O)N[C@H](C(=O)N[C@@H](CCCNC(=N)N)C(=O)N[C@@H](CCCNC(=N)N)C(=O)O)C(C)C [ApMe1, VKCRVRR] (H-VKCRVRR-OH; N-terminus and C-terminus assumed) | >128/>128/>128 ug/mL | >128/>128/>128 ug/mL | >128/>128/>128 ug/mL
8 | CC(C)C[C@H](NC(=O)[C@H](C)NC(=O)[C@@H](NC(=O)[C@H](CC(=O)O)NC(=O)[C@H](CCCNC(=N)N)NC(=O)[C@H](CCCCN)NC(=O)[C@H](Cc1ccccc1)NC(=O)[C@@H](NC(=O)[C@H](CCC(=O)O)NC(=O)[C@H](CCCCN)NC(=O)[C@H](Cc1c[nH]cn1)NC(=O)[C@H](C)NC(=O)CN)C(C)C)[C@@H](C)O)C(=O)N[C@H](C(=O)N[C@@H](CCCCN)C(=O)N[C@@H](CCC(=O)O)C(=O)N[C@@H](C)C(=O)N[C@@H](C)C(=O)N[C@@H](CCCCN)C(=O)N[C@@H](CCCCN)C(=O)N[C@@H](C)C(=O)N[C@@H](CCCCN)C(=O)N[C@@H](CCCCN)C(=O)O)[C@@H](C)O [ApMe2] (H-GAHKEVFKRDTALTKEAAKKAKK-OH; N-terminus and C-terminus assumed) | >128/>128/>128 ug/mL | >128/>128/>128 ug/mL | >128/>128/>128 ug/mL
9 | CC[C@H](C)[C@H](NC(=O)[C@H](CC(C)C)NC(=O)CNC(=O)[C@H](Cc1c[nH]c2ccccc12)NC(=O)CN)C(=O)N[C@@H](CC(N)=O)C(=O)N[C@H](C(=O)N[C@@H](CCCCN)C(=O)N[C@H](C(=O)N1CCC[C@H]1C(=O)N1CCC[C@H]1C(=O)N[C@H](C(=O)N[C@@H](CC(C)C)C(=O)N[C@@H](Cc1c[nH]cn1)C(=O)N[C@@H](CCCCN)C(=O)N[C@H](C(=O)N[C@@H](CO)C(=O)N[C@H](C(=O)N1CCC[C@H]1C(=O)N[C@@H](CC(C)C)C(=O)N[C@H](C(=O)N[C@@H](CO)C(=O)N[C@@H](CCCCN)C(=O)N[C@@H](CCCNC(=N)N)C(=O)O)C(C)C)C(C)C)C(C)C)C(C)C)[C@@H](C)CC)[C@@H](C)CC [ApMe3] (H-GWGLINIKIPPVLHKVSVPLVSKR-OH; N-terminus and C-terminus assumed) | >128/>128/>128 ug/mL | >128/>128/>128 ug/mL | >128/>128/>128 ug/mL
10 | CC[C@H](C)[C@H](NC(=O)[C@H](CC(C)C)NC(=O)[C@H](CO)NC(=O)[C@H](CCCCN)NC(=O)[C@H](CC(C)C)NC(=O)[C@@H](NC(=O)[C@H](Cc1ccc(O)cc1)NC(=O)[C@H](CCCNC(=N)N)NC(=O)[C@H](CCCNC(=N)N)NC(=O)[C@H](Cc1c[nH]cn1)NC(=O)[C@H](CCCNC(=N)N)NC(=O)[C@H](CCC(=O)O)NC(=O)[C@H](Cc1c[nH]cn1)NC(=O)[C@H](CCCNC(=N)N)NC(=O)[C@H](CC(C)C)NC(=O)[C@H](CCCCN)NC(=O)[C@@H](NC(=O)[C@H](Cc1c[nH]cn1)NC(=O)[C@H](Cc1c[nH]cn1)NC(=O)[C@H](Cc1c[nH]cn1)NC(=O)[C@@H](N)CCCCN)[C@@H](C)CC)[C@@H](C)CC)C(=O)O [ApMe4] (H-KHHHIKLRHERHRRYILKSLI-OH; N-terminus and C-terminus assumed) | >128/>128/>128 ug/mL | >128/>128/>128 ug/mL | >128/>128/>128 ug/mL
11 | CC[C@H](C)[C@H](NC(=O)[C@@H](N)CO)C(=O)N[C@@H](CC(C)C)C(=O)N[C@@H](CO)C(=O)N[C@H](C(=O)N[C@@H](CC(C)C)C(=O)N[C@@H](CO)C(=O)N[C@@H](Cc1c[nH]cn1)C(=O)N[C@@H](CCCCN)C(=O)N[C@@H](CCCNC(=N)N)C(=O)O)[C@@H](C)O [ApMe5, SILSTLSHKR] (H-SILSTLSHKR-OH; N-terminus and C-terminus assumed) | >128/>128/>128 ug/mL | >128/>128/>128 ug/mL | >128/>128/>128 ug/mL
